Here are results for 17 compounds from US7214694B2, “3-ox(adi)azolylpropanohydroxamic acids useful as procollagen C-proteinase inhibitors” (Pfizer Inc, priority 2001, dated 2007).

A word on the melting point: it is the temperature, or range, at which the solid turns liquid. Usually IC50 stands for the midpoint of a concentration-inhibition curve. High values mean lower potency, low ones higher potency.

Test system in one data set: not given
Experiment: not given
Conditions: not given
For `CCCNCc1noc([C@H](CCCC2CCCCC2)CC(=O)NO)n1` [Example 33, (3R)-6-cyclohexyl-N-hydroxy-3-{3-[(propylamino)methyl]-1,2,4-oxadiazol-5-yl}hexanamide], the melting point was 90.4 to 91.8 °C.
The same measure, in the same setting: the value for `O=C(C[C@@H](CCCC1CCCCC1)c1nc(CNC2CCCC2)co1)NO` [Example 69, (3R)-6-cyclohexyl-3-{4-[(cyclopentylamino)methyl]-1,3-oxazol-2-yl}-N-hydroxyhexanamide] was 124 to 127 °C; that for `O=C(C[C@@H](CCCC1CCCCC1)c1nc(CNC2CCC2)no1)NO` [Example 39, (3R)-3-{3-[(cyclobutylamino)methyl]-1,2,4-oxadiazol-5-yl}-6-cyclohexyl-N-hydroxyhexanamide] was 82 to 83.9 °C; that for `O=C(C[C@@H](CCCC1CCCCC1)c1nc(CN2CCC(O)CC2)no1)NO` [Example 64, (3R)-6-cyclohexyl-N-hydroxy-3-{3-[(4-hydroxy-1-piperidinyl)methyl]-1,2,4-oxadiazol-5-yl}hexanamide] was 85 °C.
Still for that read-out and setting: the value for `CCNCc1noc([C@H](CCCC2CCCCC2)CC(=O)NO)n1` [Example 32, (3R)-6-cyclohexyl-3-{3-[(ethylamino)methyl]-1,2,4-oxadiazol-5-yl}-N-hydroxyhexanamide] was 69.4 to 71.4 °C.
Still for that read-out and setting: the value for `O=C(C[C@@H](CCCC1CCCCC1)c1nc(CNC2CCCCC2)no1)NO` [Example 41, (3R)-6-cyclohexyl-3-{3-[(cyclohexylamino)methyl]-1,2,4-oxadiazol-5-yl}-N-hydroxyhexanamide] was 127 °C; that for `O=C(C[C@@H](CCCC1CCCCC1)c1nc(CN2CCOCC2)co1)NO` [Example 70, (3R)-6-cyclohexyl-N-hydroxy-3-[4-(4-morpholinylmethyl)-1,3-oxazol-2-yl]hexanamide] was 117 to 119 °C; that for `Cc1oc([C@H](CCCC2CCCCC2)CC(=O)NO)nc1CNC1CCOCC1` [Example 71, (3R)-6-cyclohexyl-N-hydroxy-3-{5-methyl-4-[(tetrahydro-2H-pyran-4-ylamino)methyl]-1,3-oxazol-2-yl}hexanamide] was 108 to 110 °C.
Take `O=C(C[C@@H](CCCC1CCCCC1)c1nc(CNC2CCOCC2)no1)NO` [Example 50, (3R)-6-cyclohexyl-N-hydroxy-3-{3-[(tetrahydro-2H-pyran-4-ylamino)methyl]-1,2,4-oxadiazol-5-yl}hexanamide]: the melting point was 108.9 to 110.3 °C.
On the same count and under the same terms, the value for `CCC(CC)NCc1noc([C@H](CCCC2CCCCC2)CC(=O)NO)n1` [Example 37, (3R)-6-cyclohexyl-3-(3-{[(1-ethylpropyl)amino]methyl}-1,2,4-oxadiazol-5-yl)-N-hydroxyhexanamide] was 102.7 to 104.3 °C.
Compound `O=C(C[C@@H](CCCC1CCCCC1)c1nc(CN2CCOCC2)no1)NO` [Example 65, (3R)-6-cyclohexyl-N-hydroxy-3-[3-(4-morpholinylmethyl)-1,2,4-oxadiazol-5-yl]hexanamide] displayed a melting point of 138 to 139 °C.
In turn, `CC(C)CNCc1noc([C@H](CCCC2CCCCC2)CC(=O)NO)n1` [Example 35, (3R)-6-cyclohexyl-N-hydroxy-3-{3-[(isobutylamino)methyl]-1,2,4-oxadiazol-5-yl}hexanamide] had a melting point of 97.8 to 99 °C.
Take `COCCCNCc1noc([C@H](CCCC2CCCCC2)CC(=O)NO)n1` [Example 45, (3R)-6-cyclohexyl-N-hydroxy-3-(3-{[(3-methoxypropyl)amino]methyl}-1,2,4-oxadiazol-5-yl)hexanamide]: the melting point was determined as 60 °C.

In the next data set the test system is PCP.
Experiment: not given
As to conditions: 0.2M NaCl; cited from earlier work.
As to `[Cl-].[Na+]` [NaCl], the “activity of PCP, of that observed with the standard assay concentration of 0.15M” value (“activity of PCP, of that observed” for short) is 66%.

The same data set, now with this note: 0.3M NaCl; cited from earlier work.
With `[Cl-].[Na+]` [NaCl], the “activity of PCP, of that observed” value is listed as 38%.

The same data set, now with this note: 0.5M NaCl; cited from earlier work.
Regarding `[Cl-].[Na+]` [NaCl], the “activity of PCP, of that observed” value is given as 25%.

Another data set addresses T1, human PCP (Homo sapiens, UniProt P13497).
T1 construct: made in house; host or cells: CHO cells (stably transfected), purified from the supernatant
T1 sequence (P13497 121-986): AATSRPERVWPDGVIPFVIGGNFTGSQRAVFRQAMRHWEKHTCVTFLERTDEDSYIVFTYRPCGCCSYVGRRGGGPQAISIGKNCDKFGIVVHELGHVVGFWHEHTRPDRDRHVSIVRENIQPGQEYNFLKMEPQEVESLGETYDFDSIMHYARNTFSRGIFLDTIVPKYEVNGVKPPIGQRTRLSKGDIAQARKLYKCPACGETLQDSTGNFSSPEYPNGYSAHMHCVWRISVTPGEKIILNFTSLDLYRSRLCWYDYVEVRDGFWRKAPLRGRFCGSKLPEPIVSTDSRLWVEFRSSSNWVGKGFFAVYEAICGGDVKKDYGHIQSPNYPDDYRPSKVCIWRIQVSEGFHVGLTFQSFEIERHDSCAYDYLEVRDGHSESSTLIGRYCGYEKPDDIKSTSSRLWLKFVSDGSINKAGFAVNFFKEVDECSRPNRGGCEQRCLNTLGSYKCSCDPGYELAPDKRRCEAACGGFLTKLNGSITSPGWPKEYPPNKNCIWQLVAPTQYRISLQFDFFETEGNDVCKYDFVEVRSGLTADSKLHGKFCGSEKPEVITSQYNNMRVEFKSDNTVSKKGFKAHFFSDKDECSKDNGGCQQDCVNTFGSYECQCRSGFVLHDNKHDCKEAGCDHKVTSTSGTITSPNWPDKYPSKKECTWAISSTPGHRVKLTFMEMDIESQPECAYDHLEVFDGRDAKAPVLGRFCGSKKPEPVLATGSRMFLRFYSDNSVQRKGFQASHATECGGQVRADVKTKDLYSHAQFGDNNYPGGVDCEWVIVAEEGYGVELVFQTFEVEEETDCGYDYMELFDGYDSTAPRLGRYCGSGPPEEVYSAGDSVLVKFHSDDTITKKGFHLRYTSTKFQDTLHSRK
Nature of the data set: fluorogenic PCP cleavage assay (PCP inhibition). The format is biochemical. The conditions noted are these: fluorogenic substrate 3×10^−6 M, pH 7.6, 37° C. Here is the method: In order to determine potency of PCP inhibitors a fluorogenic PCP cleavage assay was used. This assay is based on the template of Beekman et al. (FEBS Letters (1996), 390: 221–225) using a fluorogenic substrate. The substrate (Dabcyl-Arg-Tyr-Tyr-Arg-Ala-Asp-Asp-Ala-Asn-Val-Glu(EDANS)-NH2) contains the cleavage site of human PCP (Hojima et al., J Biol Chem (1985), 260:15996–16003). […]. The assay was performed in 96-well black fluorimeter plates and fluorescence was read continuously in a fluorimeter over 2.5 hours (λex=340 nm, λem=485 nm) at a constant 37° C. with shaking. Release of the fluorogenic signal was in linear correlation to PCP activity. Reading of the mean velocity from 30 min after start of experiment until 2.5 hours was calculated by the Biolise software. IC50 values were calculated by plotting % inhibition values against compound concentration using Tessela add in for Excel spreadsheet.
Compound `O=C(C[C@@H](CCCC1CCCCC1)c1nc(CNS(=O)(=O)c2ccccn2)no1)NO` [Example 6, (3 R)-6-cyclohexyl-N-hydroxy-3-(3-[(2-pyridinylsulfonyl)amino]methyl-1,2,4-oxadiazol-5-yl)hexanamide] yielded a half-maximal inhibitory concentration (IC50) of 0.107 µM.
On the same count and under the same terms, the value for `Cc1oc([C@H](CCCC2CCCCC2)CC(=O)NO)nc1CN1CCOCC1` [Example 72, (3R)-6-cyclohexyl-N-hydroxy-3-[5-methyl-4-(4-morpholinylmethyl)-1,3-oxazol-2-yl]hexanamide] was 0.037 µM.
The compound `CC(C)(C)NS(=O)(=O)NCc1noc([C@H](CCCC2CCCCC2)CC(=O)NO)n1` [Example 17, (3 R)-3-[3-({[(tert-butylamino)sulfonyl]amino}methyl)-1,2,4-oxadiazol-5-yl]-6-cyclohexyl-N-hydroxyhexanamide] returned an IC50 of 0.098 µM.
